Like-named read-outs stand apart in the source and are kept apart here.
Columns and labels:
[1] = test system: mouse hippocampal neurons; assay: Pharmacological stimulation and inhibition of neurons recorded on the vertical Si nanowire probe array; type: cell-based
[2] = test system: human iPSC-derived neurons; type: cell-based

Compound	cellular activity / neuronal spiking [1]	cell activity (frequency and amplitude) compared to the baseline spontaneous activity measured on the same channel ([1]; intracellular configuration, injection, nanowire recording)	activity relative to the baseline recording [1]	firing (rate) of spontaneous action potentials [1]	activity relative to the baseline recording ([1]; extracellular configuration, injection, nanowire recording)	firing (rate) of spontaneous action potentials [2]
glutamate	increased	increase of the cell activity with respect to frequency and amplitude				
NC1=N[C@H](O)[C@H]2[C@H]3O[C@]4(O)O[C@@H]([C@@H](O)[C@@]2(N1)[C@@H]4O)[C@]3(O)CO [TTX, tetrodotoxin]	neuronal spiking vanished		eliminated			
[Cl-].[K+] [KCl]	increased			increased firing rate	increased activity relative to the baseline recording	increased firing rate

— patent US11363979B2, “Addressable vertical nanowire probe arrays and fabrication methods” (priority 2016, dated 2022)
